Experimental data: patent US10010547B2 (CASCADIAN THERAPEUTICS, INC., priority 2014, dated 2018)
Structures can show the parent of a compound that is named as a salt. Where two headings read alike, the source gives them in different places.

Key:
MIA PaCa-2 cells = assay: Gemcitabine Combination Cell Assay (Cell Titer Glo); format: cell-based; settings: for IC50: Homo sapiens; for 10xLS: approximate concentration of Chk1 inhibitor that results in a 10-fold reduction in the IC50 of gemcitabine alone; for 2xLS: approximate concentration of Chk1 inhibitor that results in a two-fold reduction in the IC50 of gemcitabine alone
Summary of the method: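 MIA PaCa-2 cells were treated 72 h with half-log dilutions of Chk1 inhibitor (top 3000 nM) and gemcitabine (top 100 nM), alone and in full matrix; viability by CellTiter-Glo luminescence. IC50s from four-parameter fit; Chk1 inhibitor concentrations giving two- and ten-fold lowering of gemcitabine IC50 were estimated.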

Chk-1 kinase = Chk-1 kinase (Homo sapiens (Human), UniProt O14757); assay: Chk-1 Kinase Inhibiting Activity (33P-ATP filter assay, CHKtide substrate); format: biochemical; settings: against Chk-1 kinase; read-out: IC50
Summary of the method: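 Full-length N-terminal GST-tagged human Chk-1 from insect cells, 0.5 nM final, with 20 μM peptide substrate and 33P-ATP in HEPES pH 7.5 buffer with 1% DMSO. Reaction ran 120 minutes at room temperature; incorporated radioactivity captured on P81 filters and counted for IC50.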

[1] = Chk1 inhibitor alone, MIA PaCa-2 cells, 72 h, read-out: Chk1 IC50
[2] = MIA PaCa-2, 72 h, read-out: Chk1 IC50 (nM)

Chain of Chk-1 kinase (O14757 whole entry): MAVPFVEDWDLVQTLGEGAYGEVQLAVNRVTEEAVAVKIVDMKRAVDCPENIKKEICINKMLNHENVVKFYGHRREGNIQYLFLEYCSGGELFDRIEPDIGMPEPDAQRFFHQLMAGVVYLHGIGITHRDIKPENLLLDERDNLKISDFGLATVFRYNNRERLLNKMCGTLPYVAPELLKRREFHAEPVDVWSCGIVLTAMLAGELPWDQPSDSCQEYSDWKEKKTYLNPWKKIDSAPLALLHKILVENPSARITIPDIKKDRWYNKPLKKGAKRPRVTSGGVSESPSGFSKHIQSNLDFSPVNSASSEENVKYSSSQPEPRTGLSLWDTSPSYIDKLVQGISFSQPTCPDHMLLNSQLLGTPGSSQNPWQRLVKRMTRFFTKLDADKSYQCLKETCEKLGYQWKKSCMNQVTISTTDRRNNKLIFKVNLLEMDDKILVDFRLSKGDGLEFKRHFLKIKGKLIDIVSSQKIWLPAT

Structure (SMILES)	IC50 (MIA PaCa-2 cells; [1])	IC50 (Chk-1 kinase)	10xLS (MIA PaCa-2 cells; MIA PaCa-2 cells, 72 h)	2xLS (MIA PaCa-2 cells; MIA PaCa-2 cells, 72 h)	IC50 (MIA PaCa-2 cells; [2])
COc1cc(CN2CCOCC2)ccc1-c1cc(Nc2cnc(C#N)cn2)n[nH]1 [Example 102, 5-[[5-[2-methoxy-4-(morpholinomethyl)phenyl]-1H-pyrazol-3-yl]amino]pyrazine-2-carbonitrile]	957 nM	0.16 nM	300 nM	10 nM	–
COc1cc(CNC2CCOCC2)ccc1-c1cc(Nc2cnc(C#N)cn2)n[nH]1 [Example 14, 5-[[5-[2-Methoxy-4-[(tetrahydropyran-4-ylamino)methyl]phenyl]-1H-pyrazol-3-yl]amino]pyrazine-2-carbonitrile hydrochloride]	–	0.026 nM	~50 nM	<3 nM	894 nM
COc1cc([C@@H]2CN(C)CCO2)ccc1-c1cc(Nc2cnc(C#N)cn2)n[nH]1 [Example 117, 5-[[5-[2-Methoxy-4-[(2R)-4-methylmorpholin-2-yl]phenyl]-1H-pyrazol-3-yl]amino]pyrazine-2-carbonitrile hydrochloride]	–	0.027 nM	1000 nM	10 nM	1890 nM
COc1cc(C2CCNCC2)ccc1-c1cc(Nc2cnc(Cl)cn2)n[nH]1 [Example 43, 5-chloro-N-[5-[2-methoxy-4-(4-piperidyl)phenyl]-1H-pyrazol-3-yl]pyrazin-2-amine]	1330 nM	0.73 nM	1000 nM	100 nM	–
COc1c(-c2cc(Nc3cnc(C#N)cn3)n[nH]2)ccc(C2CCNCC2)c1Cl [Example 70, 5-[[5-[3-chloro-2-methoxy-4-(4-piperidyl)phenyl]-1H-pyrazol-3-yl]amino]pyrazine-2-carbonitrile]	2620 nM	10 nM	3000 nM	300 nM	–
COc1cc(C2(F)CCN(C)CC2)ccc1-c1cc(Nc2cnc(C#N)cn2)n[nH]1 [Example 64, 5-[[5-[4-(4-Fluoro-1-methyl-4-piperidyl)-2-methoxy-phenyl]-1H-pyrazol-3-yl]amino]pyrazine-2-carbonitrile hydrochloride]	–	0.15 nM	100 nM	3 nM	144 nM
COc1cc(N2CCN(C)CC2)ccc1-c1cc(Nc2cnc(C#N)cn2)n[nH]1 [Example 22, 5-[[5-[2-methoxy-4-(4-methylpiperazin-1-yl)phenyl]-1H-pyrazol-3-yl]amino]pyrazine-2-carbonitrile hydrochloride]	–	0.026 nM	<30 nM	<3 nM	88 nM
CN1CCC(c2ccc(-c3cc(Nc4cnc(C#N)cn4)n[nH]3)c(F)c2)CC1 [Example 21, 5-[[5-[2-fluoro-4-(1-methyl-4-piperidyl)phenyl]-1H-pyrazol-3-yl]amino]pyrazine-2-carbonitrile]	3180 nM	2.4 nM	1000 nM	100 nM	–
COc1cc(OC[C@H]2CCCN2C)ccc1-c1cc(Nc2cnc(C#N)cn2)n[nH]1 [Example 103, 5-[[5-[2-methoxy-4-[[(2R)-1-methylpyrrolidin-2-yl]methoxy]phenyl]-1H-pyrazol-3-yl]amino]pyrazine-2-carbonitrile hydrochloride]	–	0.109 nM	300 nM	3 nM	184 nM
COc1cc(C2(F)CCNCC2)ccc1-c1cc(Nc2cnc(C#N)cn2)n[nH]1 [Example 76, 5-[[5-[4-(4-fluoro-4-piperidyl)-2-methoxy-phenyl]-1H-pyrazol-3-yl]amino]pyrazine-2-carbonitrile]	482 nM	0.11 nM	300 nM	10 nM	–
CCN1CCC(c2ccc(-c3cc(Nc4cnc(C#N)cn4)n[nH]3)c(OC)c2)C(F)C1 (centres unmarked) [Example 87, 5-[[5-[4-(1-ethyl-3-fluoro-4-piperidyl)-2-methoxy-phenyl]-1H-pyrazol-3-yl]amino]pyrazine-2-carbonitrile hydrochloride]	–	0.059 nM	300 nM	10 nM	540 nM

Continued, in another order:

IC50 (MIA PaCa-2 cells; [1])	IC50 (Chk-1 kinase)	Structure (SMILES)	10xLS (MIA PaCa-2 cells; MIA PaCa-2 cells, 72 h)	2xLS (MIA PaCa-2 cells; MIA PaCa-2 cells, 72 h)	IC50 (MIA PaCa-2 cells; [2])
164 nM	0.14 nM	COc1cc(C2(F)CNC2)ccc1-c1cc(Nc2cnc(C#N)cn2)n[nH]1 [Example 77, 5-[[5-[4-(3-fluoroazetidin-3-yl)-2-methoxy-phenyl]-1H-pyrazol-3-yl]amino]pyrazine-2-carbonitrile]	<100 nM	<3 nM	–
338 nM	0.097 nM	COc1cc(CN[C@@H](C)c2ccc(F)cc2)ccc1-c1cc(Nc2cnc(C#N)cn2)n[nH]1 [Example 6, 5-[5-(4-{[(S)-1-(4-fluoro-phenyl)-ethylamino]-methyl}-2-methoxy-phenyl)-1H-pyrazol-3-ylamino]-pyrazine-2-carbonitrile]	300 nM	30 nM	–
192 nM	0.0069 nM	COc1cc(NC2CCN(C)CC2)ccc1-c1cc(Nc2cnc(C#N)cn2)n[nH]1 [Example 110, 5-[[5-[2-methoxy-4-[(1-methyl-4-piperidyl)amino]phenyl]-1H-pyrazol-3-yl]amino]pyrazine-2-carbonitrile]	100 nM	3 nM	–
411 nM	0.11 nM	COc1cc(CN[C@H]2CCOC2)ccc1-c1cc(Nc2cnc(C#N)cn2)n[nH]1 [Example 132, 5-[[5-[2-methoxy-4-[[[(3S)-tetrahydrofuran-3-yl]amino]methyl]phenyl]-1H-pyrazol-3-yl]amino]pyrazine-2-carbonitrile]	<300 nM	3 nM	–
337 nM	0.071 nM	COc1cc(OC2CCNCC2)ccc1-c1cc(Nc2cnc(C#N)cn2)n[nH]1 [Example 57, 5-[[5-[2-methoxy-4-(4-piperidyloxy)phenyl]-1H-pyrazol-3-yl]amino]pyrazine-2-carbonitrile]	100 nM	3 nM	–
209 nM	0.077 nM	COc1cc(N2CCNCC2)cc(F)c1-c1cc(Nc2cnc(C#N)cn2)n[nH]1 [Example 116, 5-[[5-(2-fluoro-6-methoxy-4-piperazin-1-yl-phenyl)-1H-pyrazol-3-yl]amino]pyrazine-2-carbonitrile]	100 nM	3 nM	–
352 nM	0.11 nM	CCN1CCC(Oc2ccc(-c3cc(Nc4cnc(C#N)cn4)n[nH]3)c(OC)c2)CC1 [Example 134, 5-[[5-[4-[(1-ethyl-4-piperidyl)oxy]-2-methoxy-phenyl]-1H-pyrazol-3-yl]amino]pyrazine-2-carbonitrile]	100 nM	3 nM	–
475 nM	0.18 nM	COc1cc(O[C@H]2CCN(C(C)C)C2)ccc1-c1cc(Nc2cnc(C#N)cn2)n[nH]1 [Example 94, 5-[[5-[4-[(3S)-1-isopropylpyrrolidin-3-yl]oxy-2-methoxy-phenyl]-1H-pyrazol-3-yl]amino]pyrazine-2-carbonitrile]	100 nM	3 nM	–
306 nM	0.082 nM	COc1cc(N2CCN(CC(C)C)CC2)ccc1-c1cc(Nc2cnc(C#N)cn2)n[nH]1 [Example 142, 5-[[5-[4-(4-isobutylpiperazin-1-yl)-2-methoxy-phenyl]-1H-pyrazol-3-yl]amino]pyrazine-2-carbonitrile]	100 nM	3 nM	–
